How the values were obtained:
[1] = tested on: human peripheral blood mononuclear cells (PBMC); test: PBMC cytotoxicity assay (CellTiter-Glo); format: cell-based; conditions: 2 days, pCC50
Summary of the method: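 Human PBMC (50,000 cells/well) stimulated with IFN-γ 100 ng/ml and LPS 50 ng/ml were exposed to 11-point 3-fold compound dilutions for 2 days at 37 °C, 5% CO2. Viability read by CellTiter-Glo ATP luminescence and normalized to no-cell and stimulated-DMSO controls. XC50 derived by four-parameter fit.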

[2] = molecular target: indoleamine 2, 3-dioxygenase (IDO1) (Homo sapiens, UniProt P14902); test: IDO1 PBMC RapidFire MS assay (kynurenine detection by mass spectrometry); format: cell-based; parameters: to induce the expression of indoleamine 2, 3-dioxygenase (IDO1); host or cells: human PBMC stimulated with IFN-gamma and LPS; conditions: human PBMC stimulated with IFN-γ and LPS, 2 days, pIC50, read-out: PBMC PXC50 (converted)
Sequence of indoleamine 2, 3-dioxygenase (IDO1) (P14902 whole entry): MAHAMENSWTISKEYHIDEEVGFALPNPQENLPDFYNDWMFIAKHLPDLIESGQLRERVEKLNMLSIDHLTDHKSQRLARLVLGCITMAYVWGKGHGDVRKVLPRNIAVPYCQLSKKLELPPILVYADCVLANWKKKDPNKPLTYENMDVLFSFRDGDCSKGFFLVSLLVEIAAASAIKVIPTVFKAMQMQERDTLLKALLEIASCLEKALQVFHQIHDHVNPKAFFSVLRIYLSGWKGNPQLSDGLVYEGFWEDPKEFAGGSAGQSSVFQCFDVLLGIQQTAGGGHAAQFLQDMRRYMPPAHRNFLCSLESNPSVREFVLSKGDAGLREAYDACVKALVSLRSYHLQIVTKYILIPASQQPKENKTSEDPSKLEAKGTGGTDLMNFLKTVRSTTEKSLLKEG
Summary of the method: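 PBMCs (50,000 cells/well) stimulated with IFN-γ 100 ng/ml plus LPS 50 ng/ml, treated with 11-point 3-fold compound series for 2 days at 37° C. Supernatant kynurenine measured by RapidFire MS, normalised to internal standard; parallel cytotoxicity by CellTiter-Glo luminescence; curves fitted for XC50.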

SMILES | PBMC TOX PXC50 [1] | IC50 [2]
CC(C)CN(c1ccc([C@H](C)CC(=O)O)cc1Nc1n[nH]c(C#N)n1)C1CCOCC1 [example 226, (3R)-3-{3-[(5-cyano-1H-1,2,4-triazol-3-yl)amino]-4-[(2-methylpropyl)(oxan-4-yl)amino]phenyl}butanoic acid] | <5 | 126 nM
CC(C)CN(c1ccc([C@H](C)CC(=O)NS(=O)(=O)N(C)C)cc1Nc1nc(C(F)(F)F)ns1)C1CCOCC1 [Example 108, (R)—N—(N,N-Dimethylsulfamoyl)-3-(4-(isobutyl(tetrahydro-2H-pyran-4-yl)amino)-3-((3-(trifluoromethyl)-1,2,4-thiadiazol-5-yl)amino)phenyl)butanamide] | <5 | 2.51 nM
CC(C)CN(c1ccc([C@H](C)CC(=O)O)cc1Nc1nc(C(F)(F)F)ns1)C1CCN(C(=O)OC(C)(C)C)CC1 [Example 69, (R)-3-(4-((1-(tert-butoxycarbonyl)piperidin-4-yl) (isobutyl)amino)-3-((3-(trifluoromethyl)-1,2,4-thiadiazol-5-yl)amino)phenyl)butanoic Acid] | <5 | 2.51 nM
CC(C)CN(CC(C)C)c1ccc(C(C)CC(=O)O)cc1Nc1nnnn1C (centres unmarked) [example 252, 3-{4-[bis(2-methylpropyl)amino]-3-[(1-methyl-1H-1,2,3,4-tetrazol-5-yl)amino]phenyl}butanoic acid] | <5 | 3980 nM
CC(C)CN(c1ccc([C@H](C)CC(=O)O)cc1Nc1n[nH]c(C(F)(F)F)n1)C1CCCCC1 [Example 78, (R)-3-(4-(cyclohexyl(isobutyl)amino)-3-((5-(trifluoromethyl)-1H-1,2,4-triazol-3-yl)amino)phenyl)butanoic Acid] | <5 | 3.16 nM
CC(C)CN(c1ccc(C(C)Nc2c(O)c(=O)c2=O)cc1Nc1nc(C(F)(F)F)ns1)C1CCOCC1 (centres unmarked) [example 256, 3-hydroxy-4-[(1-{4-[(2-methylpropyl)(oxan-4-yl)amino]-3-{[3-(trifluoromethyl)-1,2,4-thiadiazol-5-yl]amino}phenyl}ethyl)amino]cyclobut-3-ene-1,2-dione] | <5 | 2510 nM
CC(C)CN(c1ccc([C@H](C)CC(=O)O)cc1Nc1n[nH]c(C#N)n1)[C@H]1CC[C@H](O)CC1 (racemic) [example 224, (3RS)-3-{3-[(5-cyano-1H-1,2,4-triazol-3-yl)amino]-4-[(2-methylpropyl)[(1rs&,4rs&)-4-hydroxycyclohexyl]amino]phenyl}butanoic acid] | <5 | 1580 nM

From patent US10899754B2, “Modulators of indoleamine 2,3-dioxygenase” (GLAXOSMITHKLINE INTELLECTUAL PROPERTY DEVELOPMENT LIMITED, priority 2016, dated 2021)
